Key:
[1] = target: FAK (Homo sapiens, UniProt Q05397); experiment: Z`-LYTE kinase inhibitory assay, FAK
[2] = tested on: HeLa cervical cancer cell line; experiment: MTT antiproliferative assay, HeLa; type: cell-based; details: 10 µM, 24 h
Experimental: (§1) At least, three independent experiments were performed.

[3] = target: T1, VEGFR-1 (Homo sapiens, UniProt P17948); experiment: Z`-LYTE kinase profiling, VEGFR-1; type: biochemical
T1 construct: purchased Invitrogen/Life Technologies

[4] = target: T2, recombinant human TOP1 (Homo sapiens, UniProt P11387); experiment: Topoisomerase I-mediated DNA cleavage assay; details: tested at 0.1, 1, 10, 100 µM
T2 sequence (P11387 1-765): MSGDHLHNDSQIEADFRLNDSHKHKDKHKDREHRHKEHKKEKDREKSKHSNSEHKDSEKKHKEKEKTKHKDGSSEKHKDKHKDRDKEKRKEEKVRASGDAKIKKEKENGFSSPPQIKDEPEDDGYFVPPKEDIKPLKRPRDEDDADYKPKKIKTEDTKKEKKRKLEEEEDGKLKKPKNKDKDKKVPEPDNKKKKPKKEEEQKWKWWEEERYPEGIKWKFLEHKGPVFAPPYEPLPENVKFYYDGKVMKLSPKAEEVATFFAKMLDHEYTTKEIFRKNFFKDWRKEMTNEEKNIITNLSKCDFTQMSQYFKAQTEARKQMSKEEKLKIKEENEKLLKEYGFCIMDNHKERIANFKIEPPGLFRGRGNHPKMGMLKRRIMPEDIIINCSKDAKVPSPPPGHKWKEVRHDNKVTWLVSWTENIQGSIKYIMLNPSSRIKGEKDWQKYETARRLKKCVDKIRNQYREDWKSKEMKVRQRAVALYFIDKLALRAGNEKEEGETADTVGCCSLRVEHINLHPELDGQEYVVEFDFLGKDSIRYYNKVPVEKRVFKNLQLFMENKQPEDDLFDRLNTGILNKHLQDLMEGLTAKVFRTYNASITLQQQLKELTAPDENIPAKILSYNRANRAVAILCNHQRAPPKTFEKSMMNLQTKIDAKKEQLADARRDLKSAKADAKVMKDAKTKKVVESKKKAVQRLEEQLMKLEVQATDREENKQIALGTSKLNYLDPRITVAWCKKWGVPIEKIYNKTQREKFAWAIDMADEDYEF
Experimental: Radiolabeled DNA was incubated with recombinant human TOP1 in 20 µL reaction buffer (10 mmol/L Tris-HCl, pH 7.5, 50 mmol/L KCl, 5 mmol/L MgCl2, 0.1 mmol/L EDTA, and 15 µg/mL BSA) at 30 °C for 20 min in the presence of the indicated drug concentrations. Reactions were terminated by adding SDS (0.5% final concentration) followed by the addition of two volumes of loading dye (80% formamide, 10 mmol/L sodium hydroxide, 1 mmol/L sodium EDTA, 0.1% xylene cyanol, and 0.1% bromophenol blue). Aliquots of reaction mixtures were subjected to 20% denaturing PAGE. Gels were dried and visualised by using PhosphorImager and Image Quant software (Molecular Dynamics).

[5] = tested on: HCT-116 colorectal cancer cell line; experiment: MTT antiproliferative assay, HCT-116; details: for GI% HCT-116: 10 µM, 24 h, MTT; for IC50: Homo sapiens, HCT-116, 24 h, read-out: IC50 HCT-116 (half maximal growth inhibitory concentration)
Experimental: (§2) After the incubation of the tested compounds for 24 h, the percent growth inhibition (GI%) was calculated.
(§3) Cells were seeded at 1 × 10^4 cells/well and cultured overnight in a 96-well plate. […] Then, 150 µl DMSO was used to solubilise MTT formazan crystals. Finally, the plates were shaken, and the optical density was determined at 570 nm using ELISA plate reader. At least, three independent experiments were performed. Percentage of growth inhibition was determined as (1-[OD of treated cells/OD of control cells]). […] The IC50 values were calculated using Prism v0.8 software (GraphPad Software Inc., La Jolla, CA).

[6] = target: T3, VEGFR-2 (Homo sapiens, UniProt P35968); experiment: Z`-LYTE kinase profiling, VEGFR-2; type: biochemical
T3 construct: purchased Invitrogen/Life Technologies

[7] = target: T4, c-Src (Homo sapiens, UniProt P12931); experiment: Z`-LYTE kinase profiling, c-Src; type: biochemical
T4 construct: purchased Invitrogen/Life Technologies

[8] = target: T5, BTK (Homo sapiens, UniProt Q06187); experiment: Z`-LYTE kinase profiling, BTK; type: biochemical
T5 construct: purchased Invitrogen/Life Technologies
T5 sequence (Q06187 whole entry): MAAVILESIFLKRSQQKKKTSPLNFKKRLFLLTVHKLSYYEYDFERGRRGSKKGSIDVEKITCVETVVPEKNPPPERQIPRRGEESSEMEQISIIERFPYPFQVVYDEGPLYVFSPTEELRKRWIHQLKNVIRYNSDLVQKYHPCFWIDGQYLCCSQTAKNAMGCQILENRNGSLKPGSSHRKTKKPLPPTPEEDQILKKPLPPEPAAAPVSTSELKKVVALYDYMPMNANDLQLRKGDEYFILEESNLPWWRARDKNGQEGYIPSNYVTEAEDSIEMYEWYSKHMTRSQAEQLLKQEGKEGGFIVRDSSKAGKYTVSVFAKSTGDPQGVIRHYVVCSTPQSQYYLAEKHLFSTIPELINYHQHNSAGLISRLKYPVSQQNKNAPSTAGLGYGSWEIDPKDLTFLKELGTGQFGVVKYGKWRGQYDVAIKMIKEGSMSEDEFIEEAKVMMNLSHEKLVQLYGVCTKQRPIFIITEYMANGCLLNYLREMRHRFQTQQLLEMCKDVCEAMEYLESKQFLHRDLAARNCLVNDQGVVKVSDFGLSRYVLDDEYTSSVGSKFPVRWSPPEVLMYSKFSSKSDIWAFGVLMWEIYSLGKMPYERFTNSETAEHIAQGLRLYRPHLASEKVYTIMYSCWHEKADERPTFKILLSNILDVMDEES

[9] = target: T6, FRK (Homo sapiens, UniProt P42685); experiment: Z`-LYTE kinase profiling, FRK; type: biochemical
T6 construct: purchased Invitrogen/Life Technologies
T6 sequence (P42685 whole entry): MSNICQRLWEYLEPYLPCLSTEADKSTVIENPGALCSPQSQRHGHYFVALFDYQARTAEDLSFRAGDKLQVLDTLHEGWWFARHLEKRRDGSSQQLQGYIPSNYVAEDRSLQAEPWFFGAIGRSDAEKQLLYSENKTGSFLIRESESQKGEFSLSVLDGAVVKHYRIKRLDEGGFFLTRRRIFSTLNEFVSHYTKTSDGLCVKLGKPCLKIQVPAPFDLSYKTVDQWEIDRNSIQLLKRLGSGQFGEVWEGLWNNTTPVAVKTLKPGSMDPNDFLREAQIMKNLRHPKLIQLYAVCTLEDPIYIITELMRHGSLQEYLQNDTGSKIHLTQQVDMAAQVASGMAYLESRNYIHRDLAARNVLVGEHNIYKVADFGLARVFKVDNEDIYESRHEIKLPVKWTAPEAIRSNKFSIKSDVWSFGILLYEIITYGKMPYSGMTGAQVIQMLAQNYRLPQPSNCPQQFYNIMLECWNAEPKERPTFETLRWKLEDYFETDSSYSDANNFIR

[10] = tested on: MDMBA-231 breast cancer cell line; experiment: MTT antiproliferative assay, MDMBA-231; type: cell-based; details: 10 µM, 24 h
Experimental: as §1

[11] = tested on: MCF-7 breast cancer cell line; experiment: MTT antiproliferative assay, MCF-7; type: cell-based; details: 10 µM, 24 h
Experimental: as §1

[12] = tested on: DLD-1 colorectal cancer cell line; experiment: Annexin V-FITC/propidium iodide apoptosis assay (AV/PI); type: cell-based; details: 3 µM, 24 h; control 7%
Experimental: Also, compounds 6f, 6i, 16d, and 20f exerted potential apoptotic effect elevating the total percentage of apoptotic cells to 84.33, 71.66, 51.66, and 80.66%, respectively.
Flow cytometric analysis was conducted using FACS Calibur flow cytometer (BD Biosciences, San Jose, CA, USA).

[13] = target: T7, HER-2 (Homo sapiens, UniProt P04626); experiment: Z`-LYTE kinase profiling, HER-2; type: biochemical
T7 construct: purchased Invitrogen/Life Technologies
T7 sequence (P04626 23-1255): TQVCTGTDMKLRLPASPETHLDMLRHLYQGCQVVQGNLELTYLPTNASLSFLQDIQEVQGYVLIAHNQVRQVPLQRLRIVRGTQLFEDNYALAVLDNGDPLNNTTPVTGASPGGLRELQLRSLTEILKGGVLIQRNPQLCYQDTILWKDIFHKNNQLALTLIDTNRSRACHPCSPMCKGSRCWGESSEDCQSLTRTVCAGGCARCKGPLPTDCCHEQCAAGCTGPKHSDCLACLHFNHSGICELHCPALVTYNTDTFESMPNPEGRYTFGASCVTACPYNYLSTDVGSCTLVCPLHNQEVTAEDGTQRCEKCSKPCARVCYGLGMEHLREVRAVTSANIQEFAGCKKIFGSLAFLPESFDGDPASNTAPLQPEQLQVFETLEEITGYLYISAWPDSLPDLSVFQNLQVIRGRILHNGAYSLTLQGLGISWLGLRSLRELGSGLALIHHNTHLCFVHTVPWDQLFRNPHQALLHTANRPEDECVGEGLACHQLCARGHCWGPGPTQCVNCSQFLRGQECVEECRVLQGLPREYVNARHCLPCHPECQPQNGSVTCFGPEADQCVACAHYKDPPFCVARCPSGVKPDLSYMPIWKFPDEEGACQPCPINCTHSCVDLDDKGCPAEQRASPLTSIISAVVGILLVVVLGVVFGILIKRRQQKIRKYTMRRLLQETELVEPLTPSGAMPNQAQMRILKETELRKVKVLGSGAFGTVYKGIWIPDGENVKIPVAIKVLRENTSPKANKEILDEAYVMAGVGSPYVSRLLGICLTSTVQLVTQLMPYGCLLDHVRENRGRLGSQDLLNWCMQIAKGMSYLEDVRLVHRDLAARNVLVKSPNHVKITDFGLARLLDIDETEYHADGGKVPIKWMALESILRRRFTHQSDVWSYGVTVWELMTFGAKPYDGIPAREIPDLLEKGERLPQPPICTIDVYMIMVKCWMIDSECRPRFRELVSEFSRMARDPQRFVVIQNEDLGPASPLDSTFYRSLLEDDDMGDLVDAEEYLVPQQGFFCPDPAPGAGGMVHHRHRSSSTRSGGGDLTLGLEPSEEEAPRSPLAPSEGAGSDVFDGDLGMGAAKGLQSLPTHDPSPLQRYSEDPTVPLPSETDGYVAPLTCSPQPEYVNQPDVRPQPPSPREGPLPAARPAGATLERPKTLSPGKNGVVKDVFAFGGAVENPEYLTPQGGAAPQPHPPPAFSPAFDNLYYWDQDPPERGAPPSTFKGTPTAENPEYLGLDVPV

[14] = target: T8, IGF-1R (Homo sapiens, UniProt P08069); experiment: Z`-LYTE kinase profiling, IGF-1R; type: biochemical
T8 construct: purchased Invitrogen/Life Technologies
T8 sequence (P08069 31-1367): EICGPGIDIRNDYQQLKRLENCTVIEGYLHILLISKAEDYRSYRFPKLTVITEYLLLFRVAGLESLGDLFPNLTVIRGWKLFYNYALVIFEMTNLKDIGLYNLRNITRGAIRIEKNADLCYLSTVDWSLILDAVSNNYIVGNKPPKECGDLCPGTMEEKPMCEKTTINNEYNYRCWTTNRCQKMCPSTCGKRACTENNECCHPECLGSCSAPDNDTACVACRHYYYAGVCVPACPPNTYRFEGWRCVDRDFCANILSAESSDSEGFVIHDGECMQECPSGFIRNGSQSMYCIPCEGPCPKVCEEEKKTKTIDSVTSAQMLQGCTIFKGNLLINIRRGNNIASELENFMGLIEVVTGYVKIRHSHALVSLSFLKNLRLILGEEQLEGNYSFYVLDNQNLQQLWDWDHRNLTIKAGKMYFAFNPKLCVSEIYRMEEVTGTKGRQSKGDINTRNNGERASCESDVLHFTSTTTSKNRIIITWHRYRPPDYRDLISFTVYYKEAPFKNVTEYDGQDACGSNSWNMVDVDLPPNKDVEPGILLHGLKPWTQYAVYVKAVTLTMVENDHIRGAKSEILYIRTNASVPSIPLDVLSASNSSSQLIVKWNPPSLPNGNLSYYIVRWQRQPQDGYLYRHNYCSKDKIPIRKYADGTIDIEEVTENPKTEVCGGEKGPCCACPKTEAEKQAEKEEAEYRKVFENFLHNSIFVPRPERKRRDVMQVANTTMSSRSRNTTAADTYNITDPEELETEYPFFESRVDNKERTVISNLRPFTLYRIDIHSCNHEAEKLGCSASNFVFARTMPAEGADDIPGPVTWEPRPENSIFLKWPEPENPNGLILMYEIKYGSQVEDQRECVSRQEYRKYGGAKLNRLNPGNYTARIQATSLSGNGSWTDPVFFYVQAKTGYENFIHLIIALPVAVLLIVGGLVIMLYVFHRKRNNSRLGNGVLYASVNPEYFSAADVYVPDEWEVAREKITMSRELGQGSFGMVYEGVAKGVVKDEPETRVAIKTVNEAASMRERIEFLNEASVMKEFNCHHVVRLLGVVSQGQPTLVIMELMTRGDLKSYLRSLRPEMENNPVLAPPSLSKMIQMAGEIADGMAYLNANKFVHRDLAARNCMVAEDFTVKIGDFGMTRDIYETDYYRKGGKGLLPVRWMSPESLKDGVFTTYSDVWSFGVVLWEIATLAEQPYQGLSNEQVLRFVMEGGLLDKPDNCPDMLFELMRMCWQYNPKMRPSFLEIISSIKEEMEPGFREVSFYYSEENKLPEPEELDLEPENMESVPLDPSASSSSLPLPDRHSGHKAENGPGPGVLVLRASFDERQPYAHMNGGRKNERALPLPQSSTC

[15] = tested on: DLD-1 colorectal cancer cell line; experiment: MTT antiproliferative assay, DLD-1; details: for GI% DLD1: 10 µM, 24 h, MTT; for IC50: Homo sapiens, DLD-1, 24 h, read-out: IC50 DLD1 (half maximal growth inhibitory concentration); for fold superior activity compared to Gefitinib, DLD-1: from IC50 values
Experimental: as §2, §3

[16] = target: EGFR (Homo sapiens, UniProt P00533); experiment: Z`-LYTE kinase inhibitory assay, EGFR
Chain of EGFR (P00533 25-1210): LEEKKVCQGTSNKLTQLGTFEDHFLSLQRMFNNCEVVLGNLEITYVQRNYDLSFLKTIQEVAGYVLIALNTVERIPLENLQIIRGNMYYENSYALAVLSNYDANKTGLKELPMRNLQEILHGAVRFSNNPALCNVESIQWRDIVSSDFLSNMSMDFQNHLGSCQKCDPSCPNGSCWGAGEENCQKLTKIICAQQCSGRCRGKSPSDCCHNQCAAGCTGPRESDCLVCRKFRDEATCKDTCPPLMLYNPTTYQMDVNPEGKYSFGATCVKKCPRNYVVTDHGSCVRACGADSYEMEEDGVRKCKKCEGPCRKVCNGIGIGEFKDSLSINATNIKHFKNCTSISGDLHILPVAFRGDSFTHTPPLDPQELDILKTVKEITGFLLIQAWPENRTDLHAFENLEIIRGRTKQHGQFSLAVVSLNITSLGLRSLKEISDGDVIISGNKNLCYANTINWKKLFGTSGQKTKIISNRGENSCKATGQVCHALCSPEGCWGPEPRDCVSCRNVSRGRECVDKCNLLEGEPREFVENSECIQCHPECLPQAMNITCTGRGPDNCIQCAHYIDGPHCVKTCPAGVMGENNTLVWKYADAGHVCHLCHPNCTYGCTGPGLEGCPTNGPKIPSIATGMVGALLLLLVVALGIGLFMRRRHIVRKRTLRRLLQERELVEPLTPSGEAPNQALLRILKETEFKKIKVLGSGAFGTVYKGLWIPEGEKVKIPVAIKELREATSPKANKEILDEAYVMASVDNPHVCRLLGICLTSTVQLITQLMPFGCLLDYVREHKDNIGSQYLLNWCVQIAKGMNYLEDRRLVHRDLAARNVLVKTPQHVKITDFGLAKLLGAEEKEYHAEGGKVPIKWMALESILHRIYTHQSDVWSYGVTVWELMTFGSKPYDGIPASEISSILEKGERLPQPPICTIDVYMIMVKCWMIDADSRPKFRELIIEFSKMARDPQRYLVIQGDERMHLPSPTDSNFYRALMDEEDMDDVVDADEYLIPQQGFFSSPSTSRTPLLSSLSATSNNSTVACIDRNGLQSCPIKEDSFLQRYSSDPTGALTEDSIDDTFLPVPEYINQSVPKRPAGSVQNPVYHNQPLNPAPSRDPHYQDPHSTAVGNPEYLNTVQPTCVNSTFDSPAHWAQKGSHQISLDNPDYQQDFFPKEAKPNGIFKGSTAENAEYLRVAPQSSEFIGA

| IC50 [1] [nM] | IC50 [3] [nM] | TOP1 inhibitory activity (semiquantitative score relative to 1 µM CPT) [4] | IC50 [5] [nM] | IC50 [6] [nM] | IC50 [7] [nM] | IC50 [8] [nM] | IC50 [9] [nM] | IC50 [13] [nM] | IC50 [14] [nM] | IC50 [15] [nM] | IC50 [16] [nM] | melting point [°C] | Compound | GI% Hela [2] [%] | GI% HCT-116 [5] [%] | GI% MDMBA-231 [10] [%] | GI% MCF-7 [11] [%] | total percentage of AV positive apoptotic DLD-1 cells [12] [%] | GI% DLD1 [15] [%] | fold superior activity compared to Gefitinib, DLD-1 [15] [fold] |
| --- | --- | --- | --- | --- | --- | --- | --- | --- | --- | --- | --- | --- | --- | --- | --- | --- | --- | --- | --- | --- |
| 14.2 ± 2.72 | 464 | −/+ (−/+: 0–25% 1 µM CPT) | 3280 ± 670 | 2450 | 3580 | 3480 | 330 | 1580 | 197 | 1790 ± 210 | 20.2 ± 1.07 |  | COc1cc2nc(-c3ccc(C(F)(F)F)cc3)cc(OCCCNC3CCN(C)CC3)c2cc1OC [6h, N-(3-((6,7-dimethoxy-2–(4-(trifluoromethyl)phenyl)quinolin-4-yl)oxy)propyl)-1-methyl p-iperidin-4-amine] | 90.78 | 89.34 | 84.76 | 90.36 | 90.33 | 92.36 | 5 |
| 18.4 ± 3.17 | 801 | 0 | 5680 ± 1420 | 8240 | 7010 | 7290 | 1210 | 1380 | 1710 | 2480 ± 860 | 22.4 ± 2.05 |  | COc1cc2nc(-c3ccc(C(F)(F)F)cc3)cc(OCCCNCC3CCCO3)c2cc1OC (centres unmarked) [6i, 3-((6,7-dimethoxy-2–(4-(trifluoromethyl)phenyl)quinolin-4-yl)oxy)-N-((tetrahydrofuran-2-yl)methyl)propan-1-amine] | 78.64 | 82.11 | 81.60 | 89.49 | 71.66 | 88.76 | 4 |
| 17.4 ± 2.15 | 1770 | 0 | 2430 ± 710 | 4690 | 3900 | 2100 | 1730 | 358 | 2230 | 2180 ± 520 | 35 ± 2.64 | 132 to 134 | Fc1ccc(-c2cc(OCCCN3CCOCC3)c3cc(Br)ccc3n2)cc1 [16d, 4-(3-((6-bromo-2-(4-fluorophenyl)quinolin-4-yl)oxy)propyl)morpholine] | 85.67 | 97.48 | 80.24 | 86.38 | 51.66 | 90.11 | 4 |
| 15.4 ± 0.98 | 870 | 0 | 2960 ± 120 | 89.3 | 92.1 | 23.5 | 632 | 251 | 3530 | 2090 ± 140 | 24.8 ± 2.71 |  | Clc1ccc(-c2cc(OCCCN3CCOCC3)c3cc(-c4ccco4)ccc3n2)cc1 [20f, 4-(3-((2-(4-chlorophenyl)-6-(furan-2-yl)quinolin-4-yl)oxy)propyl)morpholine] | 79.64 | 91.37 | 82.58 | 87.36 | 80.66 | 94.18 | 4 |
